PMC7158045 (BMC Plant Biology, 2020)
Structures can show the parent of a compound that is named as a salt.

Assays:
Test in all cases: biochemical
[1] = target: T1, ZmDRIK1 (DROUGHT RESPONSIVE INACTIVE KINASE 1), kinase domain (Zea mays, UniProt C0P4K9); conditions: DSF, Boltzmann fit, 0.1% DMSO; for dTm B: sheet ZmDRIK1-R187-S514;, 10 µM, binder; for ΔTm at 10 µM: read-out: dTm B, sheet ZmDRIK1-R187-S514;
T1 construct: gene ZEAMMB73_Zm00001d028770; ZmDRIK1-KD R187-S514 (kinase domain)
T1 sequence (C0P4K9 187-514): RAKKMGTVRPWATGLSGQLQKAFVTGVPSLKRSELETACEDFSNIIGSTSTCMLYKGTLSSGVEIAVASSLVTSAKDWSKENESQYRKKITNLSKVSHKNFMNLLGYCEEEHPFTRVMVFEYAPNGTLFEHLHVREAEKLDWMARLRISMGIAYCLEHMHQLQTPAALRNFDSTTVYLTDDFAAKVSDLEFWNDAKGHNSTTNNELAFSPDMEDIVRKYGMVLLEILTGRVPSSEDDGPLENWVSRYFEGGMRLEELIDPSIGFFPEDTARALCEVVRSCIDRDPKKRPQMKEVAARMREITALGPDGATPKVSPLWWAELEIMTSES

ZmDRIK1-R187-P492 = target: T2, ZmDRIK1-R187-P492 (Zea mays, UniProt C0P4K9); conditions: read-out: dTm B, DSF, Boltzmann fit, 0.1% DMSO
T2 construct: kinase domain, R187-P492
T2 sequence (C0P4K9 1-514): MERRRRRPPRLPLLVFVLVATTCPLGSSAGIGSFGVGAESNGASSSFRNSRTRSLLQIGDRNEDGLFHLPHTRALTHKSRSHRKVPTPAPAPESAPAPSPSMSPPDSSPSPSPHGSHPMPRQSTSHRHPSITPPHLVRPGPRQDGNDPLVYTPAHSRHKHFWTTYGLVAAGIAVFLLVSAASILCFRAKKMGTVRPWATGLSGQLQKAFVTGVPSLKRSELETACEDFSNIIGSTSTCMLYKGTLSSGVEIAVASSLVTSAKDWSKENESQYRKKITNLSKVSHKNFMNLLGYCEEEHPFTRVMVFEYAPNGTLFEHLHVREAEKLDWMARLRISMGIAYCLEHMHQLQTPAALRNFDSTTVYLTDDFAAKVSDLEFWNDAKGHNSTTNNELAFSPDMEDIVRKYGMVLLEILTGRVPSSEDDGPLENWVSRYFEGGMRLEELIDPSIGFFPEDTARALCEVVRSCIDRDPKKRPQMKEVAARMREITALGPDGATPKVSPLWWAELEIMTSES

ZmDRIK1-K217-S514 = target: T3, ZmDRIK1-K217-S514 (Zea mays, UniProt C0P4K9); conditions: read-out: dTm B, sheet ZmDRIK1-K217-S514;; DSF, Boltzmann fit, 0.1% DMSO
T3 construct: kinase domain, K217-S514
T3 sequence (C0P4K9 1-514): T2 sequence (C0P4K9 1-514)

ZmDRIK1-K217-P492 = target: T4, ZmDRIK1-K217-P492 (Zea mays, UniProt C0P4K9); conditions: read-out: dTm B, sheet ZmDRIK1-K217-P492;; DSF, Boltzmann fit, 0.1% DMSO
T4 construct: kinase domain, K217-P492
T4 sequence (C0P4K9 1-514): T2 sequence (C0P4K9 1-514)

SMILES | dTm B [1] [degC] | ΔTm at 10 µM (ZmDRIK1-R187-P492) [°C] | ΔTm at 10 µM (ZmDRIK1-K217-S514) [°C] | ΔTm at 10 µM (ZmDRIK1-K217-P492) [°C] | ΔTm at 10 µM [1] [°C]
Cc1ccc(Nc2nccc(N(C)c3ccc4c(C)n(C)nc4c3)n2)cc1S(N)(=O)=O [Pazopanib] | -0.7756 | – | – | – | –
Cc1ccc(NC(=O)c2cccc(C(C)(C)C#N)c2)cc1Nc1ccc2ncn(C)c(=O)c2c1 [AZ 628] | – | -0.122 | -0.322 | -0.776 | –
CCc1cc(Nc2nccc(-c3c(-c4ccc(OC)c(C(=O)Nc5c(F)cccc5F)c4)nc4ccccn34)n2)c(OC)cc1N1CCC(N2CCN(S(C)(=O)=O)CC2)CC1 [GSK1904529A] | – | – | -0.386 | -0.895 | 0.265
CNC(=O)c1cc(Oc2ccc(NC(=O)Nc3ccc(Cl)c(C(F)(F)F)c3)cc2)ccn1 [Sorafenib Tosylate] | – | – | – | – | -12
COc1cc2c(Oc3ccc(NC(=O)C4(C(=O)Nc5ccc(F)cc5)CC4)cc3F)ccnc2cc1OCCCN1CCOCC1 [Foretinib (GSK1363089)] | – | 5.58 | -14.7 | -14.9 | –
S=C(NCc1ccc2c(c1)OCO2)N1CCN(c2ncnc3c2oc2ccccc23)CC1 [Amuvatinib (MP-470)] | – | -10.8 | -3.2 | 9.06 | –
COc1c(C)c(C(=O)c2ccc(N)c(C(=O)O)c2)n2ccccc12 [SSR128129E] | – | – | -0.406 | -0.939 | -0.884
CN(c1ncccc1CNc1nc(Nc2ccc3c(c2)CC(=O)N3)ncc1C(F)(F)F)S(C)(=O)=O [PF-562271] | -0.5293 | – | – | – | –
COc1cc(Nc2ncc(F)c(Nc3ccc4c(n3)NC(=O)C(C)(C)O4)n2)cc(OC)c1OC [R406 (free base)] | -0.8381 | – | – | – | –
N#CC[C@H](C1CCCC1)n1cc(-c2ncnc3[nH]ccc23)cn1 [Ruxolitinib (INCB018424)] | -0.7708 | – | – | – | –
Cc1ccc(Nc2nccc(N(C)c3ccc4c(C)n(C)nc4c3)n2)cc1S(N)(=O)=O [Pazopanib HCl (GW786034 HCl)] | -0.83 | – | – | – | –
CN1CCN(c2ccc3nc(-c4c(N)c5c(F)cccc5[nH]c4=O)[nH]c3c2)CC1 [Dovitinib (TKI-258) Dilactic Acid] | -0.2117 | – | – | – | –
CCc1cncnc1N1CCN(Cc2nc3ccc(C(F)(F)F)cc3[nH]2)CC1 [PF-4708671] | – | – | -0.219 | -0.666 | -0.759
NS(=O)(=O)c1ccc(N/C=C2\C(=O)Nc3ccc4ncsc4c32)cc1 [GW297361X] | – | – | – | – | -0.74
Cc1ccccc1-n1c(Cn2ncc3c(N)ncnc32)nc2cccc(C)c2c1=O [PIK-293] | – | -0.695 | – | -1.04 | -1.14
C[C@@H](Oc1cc(-c2cnn(C3CCNCC3)c2)cnc1N)c1c(Cl)ccc(F)c1Cl [Crizotinib (PF-02341066)] | – | -0.336 | -0.67 | – | -0.958
COc1cc2nccc(Oc3ccc(NC(=O)C4(C(=O)Nc5ccc(F)cc5)CC4)cc3)c2cc1OC [Cabozantinib malate (XL184)] | – | – | – | – | -14.9
CN(C[C@@H]1COCCO1)S(=O)(=O)Nc1ccc2ccc3ncc(-c4cnn(C)c4)cc3c(=O)c2c1 [MK-2461] | – | – | -0.402 | -1.12 | -1
CN(c1ncccc1CNc1nc(Nc2ccc3c(c2)CC(=O)N3)ncc1C(F)(F)F)S(C)(=O)=O [PF-00562271] | -0.8176 | – | – | – | –
CNC(=O)Nc1ccc(-c2nc(N3CC4CCC(C3)O4)c3cnn(C4CCC5(CC4)OCCO5)c3n2)cc1 [WYE-125132 (WYE-132)] | – | – | -0.412 | -0.91 | -0.649
COc1cc(Nc2ncc(F)c(Nc3ccc4c(n3)NC(=O)C(C)(C)O4)n2)cc(OC)c1OC [R406] | -1.004 | – | – | – | –
CN1CCN(c2ccc3nc(-c4c(N)c5c(F)cccc5[nH]c4=O)[nH]c3c2)CC1 [Dovitinib (TKI-258)] | -0.003273 | – | – | – | –
NC(=O)Nc1sc(-c2ccc(F)cc2)cc1C(N)=O [TPCA-1] | – | 0.149 | 0.285 | – | -0.582
N#CC[C@H](C1CCCC1)n1cc(-c2ncnc3[nH]ccc23)cn1 [S-Ruxolitinib (INCB018424)] | -0.5823 | – | – | – | –
